Some test systems named below: A498 renal; MCF7 breast; SF-295 CNS; 786-0 renal; K-562 leukemia; TK-10 renal; NCI-H226 lung; A549 NSCLC; ACHN renal; PC-3 prostate.
Common to all, as to test: growth of human tumour cells (NCI), 48 h

This passage reports GI50 and TGI results from PubChem BioAssay (NCI).

Each structure is given as a SMILES string.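 Where inhibition never reached the appropriate level, the endpoint shown equals the highest concentration tested. Otherwise, values were interpolated linearly from a five-concentration, 48-hour dose response in 96-well plates. At the GI50, growth is halved. At the TGI there is no net growth.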 Where a SMILES comes first, the peptide text is derived from it. [ ]: non-standard residue; d: D form. Phe(F5) = N[CH](Cc1c(F)c(F)c(F)c(F)c1F)C(=O)O

As to `O=c1cc(CNc2cc(F)cc(F)c2)c2ccc(I)cc2[nH]1`, the GI50 in the assay on A498 renal was 0.279 µM; in the assay with MCF7 breast it was 0.388 µM; in the assay on SF-295 CNS, 0.441 µM; in the assay with 786-0 renal, 1.05 µM; in the assay with K-562 leukemia, 0.203 µM; in the assay with TK-10 renal, above 100 µM. Also, the figures for the GI50 in the assay on A549 NSCLC, in the assay on ACHN renal and in the assay with PC-3 prostate were 0.707 µM, 0.75 µM and 0.571 µM, respectively. Further, the TGI in the assay with MCF7 breast, with SF-295 CNS, in the assay on 786-0 renal, with K-562 leukemia, in the assay with TK-10 renal and in the assay on NCI-H226 lung was above 100 µM in each case. The TGI in the assay on A549 NSCLC, in the assay with ACHN renal and with PC-3 prostate was above 100 µM in each case.
Turning to `CCN=C1C=CC(=C(c2ccc(N(C)C)cc2)c2ccc(N(C)C)cc2)c2ccccc21`, the GI50 is 0.16 µM with A498 renal; 0.141 µM with MCF7 breast; 0.122 µM with SF-295 CNS; 0.0866 µM in the assay on 786-0 renal; 0.0557 µM in the assay on K-562 leukemia; 0.0913 µM with TK-10 renal. Besides, the results for the GI50 in the assay on A549 NSCLC, with ACHN renal and in the assay with PC-3 prostate were 0.0312 µM, 0.241 µM and 0.0468 µM, respectively. Further, the TGI in the assay on A498 renal came to 0.453 µM; with MCF7 breast, 1.09 µM; in the assay with SF-295 CNS, 0.423 µM; in the assay on 786-0 renal it was 0.37 µM; in the assay on K-562 leukemia, 2.17 µM; in the assay on TK-10 renal, 1.31 µM. Further, the TGI came out at 0.176 µM with A549 NSCLC, 1.1 µM with ACHN renal and 1.06 µM with PC-3 prostate.
Consider `CN(C)CCCNC(=O)c1cc(NC(=O)CCNS(=O)(=O)c2ccc3c(c2)C(=O)c2ccccc2C3=O)cn1C`, for which the GI50 in the assay on A498 renal, with MCF7 breast, in the assay with SF-295 CNS, in the assay with 786-0 renal, in the assay on K-562 leukemia and in the assay with TK-10 renal was above 100 µM in each case. Also, the GI50 in the assay on NCI-H226 lung, in the assay on A549 NSCLC and in the assay with PC-3 prostate was above 100 µM throughout. For the same compound, the TGI in the assay on A498 renal, in the assay on MCF7 breast, with SF-295 CNS, in the assay on 786-0 renal, in the assay on K-562 leukemia and with TK-10 renal was above 100 µM in each case. For the same compound, the TGI with NCI-H226 lung, in the assay with A549 NSCLC and in the assay on PC-3 prostate was above 100 µM throughout.
On to `CN(C)CCNC(=O)c1cccn2c(=O)c3cc4ccccc4cc3nc12`, for which the GI50 was 0.122 µM with A498 renal; 0.232 µM in the assay on MCF7 breast; 0.0679 µM in the assay with SF-295 CNS; 0.11 µM in the assay with 786-0 renal; 0.208 µM with K-562 leukemia; 0.399 µM in the assay on TK-10 renal. Also, the GI50 was 0.145 µM in the assay with NCI-H226 lung, 0.0422 µM in the assay with ACHN renal and 0.194 µM with PC-3 prostate. Also, the TGI in the assay on A498 renal was 0.667 µM; in the assay with MCF7 breast, above 100 µM; with SF-295 CNS, 1.1 µM; with 786-0 renal, 14.1 µM; in the assay with K-562 leukemia, 40.8 µM; with TK-10 renal it was 9.8 µM. The values for the TGI in the assay with NCI-H226 lung, in the assay on ACHN renal and with PC-3 prostate were 2.99 µM, above 36.4 µM and above 22 µM, respectively.
As for `COC(=O)C(CC(C)C)NC(=O)C(Cc1cnc[nH]1)NC(=O)CNC(=O)C(NC(=O)C(C)NC(=O)C(Cc1c[nH]c2ccccc12)NC(=O)C(CCC(=O)O)NC(=O)C(N)Cc1c(F)c(F)c(F)c(F)c1F)C(C)C` (configuration not stated) (H-[Phe(F5)]EWAVGHL-OMe; configuration not given here), the GI50 in the assay on A498 renal, in the assay on SF-295 CNS, in the assay with 786-0 renal, in the assay with K-562 leukemia, with A549 NSCLC and in the assay on ACHN renal was above 100 µM each time. The TGI in the assay with A498 renal was above 100 µM; with MCF7 breast it was above 12.5 µM; in the assay on SF-295 CNS, above 100 µM; with 786-0 renal, above 100 µM; in the assay with K-562 leukemia, above 100 µM; in the assay with NCI-H226 lung, above 12.5 µM. Also, the TGI with A549 NSCLC was above 100 µM; in the assay with ACHN renal, above 100 µM; in the assay on PC-3 prostate, above 12.5 µM.
`CC(C)(C(=O)NN)c1ccccc1`: the TGI in the assay with A498 renal, in the assay on MCF7 breast, with SF-295 CNS, in the assay with 786-0 renal, in the assay with K-562 leukemia and in the assay with TK-10 renal was above 100 µM in each case. Also, the TGI with A549 NSCLC, in the assay with ACHN renal and in the assay on PC-3 prostate was above 100 µM in each case.
Consider `O=C(CCN1CCCC1)Nc1ccc2c(NCc3ccc(F)cc3)c3ccccc3nc2c1`, for which the GI50 was 0.733 µM with A498 renal; 0.314 µM in the assay with MCF7 breast; 0.59 µM with SF-295 CNS; 0.55 µM in the assay with 786-0 renal; 1.04 µM in the assay on TK-10 renal; 0.57 µM with NCI-H226 lung. Besides, the GI50 with A549 NSCLC was 0.384 µM; in the assay with ACHN renal, 0.483 µM; in the assay with PC-3 prostate it was 0.479 µM. The TGI is 2.26 µM in the assay with A498 renal; 1.31 µM in the assay with MCF7 breast; 2.03 µM with SF-295 CNS; 1.94 µM in the assay with 786-0 renal; 2.93 µM in the assay with TK-10 renal; 2.63 µM in the assay with NCI-H226 lung. Also, the TGI came out at 1.79 µM in the assay on A549 NSCLC, 1.87 µM in the assay with ACHN renal and 1.9 µM in the assay with PC-3 prostate.
For `COc1cccc(OC(=O)c2ccccc2Nc2ccnc(C(F)(F)F)c2)c1`, the GI50 in the assay with MCF7 breast is 7.29 µM; in the assay with SF-295 CNS, 2.51 µM; in the assay on 786-0 renal, 3.43 µM; in the assay on K-562 leukemia, 0.739 µM; in the assay with TK-10 renal it was 11.2 µM; in the assay with NCI-H226 lung, 8.09 µM. For the same compound, the GI50 in the assay with A549 NSCLC was 3.18 µM; in the assay on ACHN renal, 3.4 µM; with PC-3 prostate, 3.25 µM. Also, the TGI was above 100 µM in the assay on MCF7 breast; above 100 µM in the assay on SF-295 CNS; 12.2 µM in the assay with 786-0 renal; above 100 µM in the assay on K-562 leukemia; 37 µM with TK-10 renal; 77.3 µM in the assay on NCI-H226 lung. Besides, the TGI was 20.7 µM in the assay on A549 NSCLC, 24.7 µM with ACHN renal and above 100 µM with PC-3 prostate.
As for `CSc1nnc(CCSc2ccnc3c(C(F)(F)F)cccc23)o1`, the GI50 with MCF7 breast is above 100 µM; in the assay with SF-295 CNS, 59.8 µM; with 786-0 renal, 95.3 µM; with K-562 leukemia, 47.3 µM; in the assay on TK-10 renal, 70.1 µM; with NCI-H226 lung, above 100 µM. Besides, the GI50 with A549 NSCLC was above 100 µM; in the assay on ACHN renal, above 100 µM; with PC-3 prostate it was 88.4 µM. Besides, the TGI in the assay with MCF7 breast, with SF-295 CNS, in the assay on 786-0 renal, with K-562 leukemia, in the assay on TK-10 renal and in the assay with NCI-H226 lung was above 100 µM each time. The TGI in the assay on A549 NSCLC, in the assay with ACHN renal and in the assay with PC-3 prostate was above 100 µM throughout.
`COc1ccc(Cn2nc(-c3cc(OC)c(OC)c(OC)c3)c3c2CCc2cnoc2-3)cc1OC`: the GI50 in the assay on A498 renal is 2 µM; in the assay with MCF7 breast, 3.45 µM; in the assay with 786-0 renal, 6.34 µM; in the assay on TK-10 renal, 10.1 µM; in the assay with NCI-H226 lung, 6.85 µM; in the assay with A549 NSCLC, 6.27 µM. Besides, the GI50 in the assay with ACHN renal is 6.12 µM; in the assay on PC-3 prostate, 3.62 µM. For the same compound, the TGI in the assay with A498 renal was 9.8 µM; in the assay with MCF7 breast, 18.3 µM; in the assay with 786-0 renal, above 100 µM; in the assay on TK-10 renal it was above 100 µM; with NCI-H226 lung, 56.1 µM; in the assay with A549 NSCLC, above 100 µM. Further, the TGI in the assay with ACHN renal was above 100 µM; in the assay on PC-3 prostate it was 65.3 µM.
For `O=C1C(Cl)=C(N/N=c2/[nH][nH]/c(=N/NC3=C(Cl)C(=O)c4ccccc4C3=O)c3ccccc23)C(=O)c2ccccc21`, the GI50 is 11.5 µM in the assay on A498 renal; 12.3 µM in the assay with MCF7 breast; 14.2 µM with SF-295 CNS; 17.4 µM with 786-0 renal; 3.23 µM with K-562 leukemia; 17.8 µM in the assay on NCI-H226 lung. Moreover, the GI50 is 21.9 µM in the assay on A549 NSCLC, 12.7 µM in the assay with ACHN renal and 8.64 µM with PC-3 prostate. Also, the TGI with A498 renal came out at 24 µM; in the assay with MCF7 breast, 38.4 µM; in the assay with SF-295 CNS, 30.5 µM; in the assay with 786-0 renal, 32.3 µM; in the assay on K-562 leukemia, 13.9 µM; in the assay on NCI-H226 lung, 44 µM. The figures for the TGI with A549 NSCLC, in the assay with ACHN renal and in the assay on PC-3 prostate were 52.2 µM, 28.2 µM and 28.7 µM, respectively.
With `N#Cc1ncc(/N=C/c2ccc(N(CCCl)CCCl)cc2)s1`, the GI50 in the assay with A498 renal was 1.63 µM; in the assay with MCF7 breast, 8.85 µM; in the assay on 786-0 renal, 4.52 µM; with K-562 leukemia, 7.51 µM; with TK-10 renal, 23.2 µM; with NCI-H226 lung, 0.897 µM. Further, the results for the GI50 in the assay on A549 NSCLC, in the assay on ACHN renal and with PC-3 prostate were 28.2 µM, 5.13 µM and 34.9 µM, respectively. Further, the TGI is 4.4 µM in the assay on A498 renal; above 100 µM with MCF7 breast; 20.3 µM in the assay on 786-0 renal; above 100 µM in the assay with K-562 leukemia; 97.4 µM in the assay with TK-10 renal; 7.71 µM with NCI-H226 lung. The TGI in the assay on A549 NSCLC is above 100 µM; with ACHN renal, 41.6 µM; in the assay on PC-3 prostate, above 100 µM.
